Reference: patent publication US8952024B2, “Herbicidal pyrimidone derivatives” (E I du Pont de Nemours and Company, priority 2009, dated 2015)

Assays:
Assay type in all cases: in vivo
[1] = system: bromegrass (downy bromegrass, Bromus tectorum); experiment: Test C plant response; conditions: Preemergence, scale 0 to 100
[2] = system: Italian ryegrass (Lolium multiflorum); experiment: Test C plant response; conditions: Preemergence, scale 0 to 100
[3] = system: bluegrass (annual bluegrass, Poa annua); experiment: Test C plant response; conditions: Preemergence, scale 0 to 100
[4] = system: winter barley (Hordeum vulgare); experiment: Test C plant response; conditions: Preemergence, scale 0 to 100
[5] = system: winter barley (Hordeum vulgare); experiment: Test C plant response; conditions: Postemergence, scale 0 to 100
From the text: (§1) Seeds of plant species selected from bluegrass (annual bluegrass, Poa annua), blackgrass (Alopecurus myosuroides), canarygrass (Phalaris minor), chickweed (common chickweed, Stellaria media), galium (catchweed bedstraw, Galium aparine), bromegrass (downy bromegrass, Bromus tectorum), field poppy (Papaver rhoeas), field violet (Viola arvensis), green foxtail (Setaria viridis), deadnettle (henbit deadnettle, Lamium amplexicaule), Italian ryegrass (Lolium multiflorum), kochia (Kochia scoparia), lambsquarters (Chenopodium album), oilseed rape (Brassica napus), pigweed (Amaranthus retroflexus), Russian thistle (Salsola iberica), spring barley (Hordeum vulgare), spring wheat (Triticum aestivum), buckwheat (wild buckwheat, Polygonum convolvulus), wild mustard (Sinapis arvensis), wild oat (Avena fatua), wild radish (Raphanus raphanistrum), windgrass (Apera spica-venti), winter barley (Hordeum vulgare), and winter wheat (Triticum aestivum) were planted and treated postemergence with test chemicals formulated in a non-phytotoxic solvent mixture which included a surfactant. Plants ranged in height from 2 to 18 cm (1- to 4-leaf stage).
(§2) Treated plants and controls were maintained in a controlled growth environment for 14 days after which time all test plants were visually evaluated and compared to controls. Plant response ratings, summarized in Table C, are based on a scale of 0 to 100 where 0 is no effect and 100 is complete control. A dash (-) response means no test result.

[6] = system: windgrass (Apera spica-venti); experiment: Test C plant response; conditions: Postemergence, scale 0 to 100
From the text: as §1, §2

[7] = system: blackgrass (Alopecurus myosuroides); experiment: Test C plant response; conditions: Postemergence, scale 0 to 100
From the text: as §1, §2

[8] = system: bromegrass (downy bromegrass, Bromus tectorum); experiment: Test C plant response; conditions: Postemergence, scale 0 to 100
From the text: as §1, §2

[9] = system: deadnettle (henbit deadnettle, Lamium amplexicaule); experiment: Test C plant response; conditions: Postemergence, scale 0 to 100
From the text: as §1, §2

[10] = system: wild mustard (Sinapis arvensis); experiment: Test C plant response; conditions: Preemergence, scale 0 to 100
[11] = system: chickweed (common chickweed, Stellaria media); experiment: Test C plant response; conditions: Preemergence, scale 0 to 100
[12] = system: wild radish (Raphanus raphanistrum); experiment: Test C plant response; conditions: Preemergence, scale 0 to 100
[13] = system: field violet (Viola arvensis); experiment: Test C plant response; conditions: Preemergence, scale 0 to 100
wild oat (Avena fatua) = experiment: Test C plant response; conditions: Preemergence, scale 0 to 100
kochia (Kochia scoparia) = experiment: Test C plant response; conditions: Preemergence, scale 0 to 100
[14] = system: deadnettle (henbit deadnettle, Lamium amplexicaule); experiment: Test B pre-/postemergence plant response; conditions: Postemergence
How it was run: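 Visual ratings on a 0–100 scale (100 = complete control) were made versus untreated controls 13–15 days after treatment in a greenhouse. Compounds in surfactant-containing non-phytotoxic solvent were applied preemergence to seeds in loam–sand blend or postemergence to 1- to 4-leaf plants (2–18 cm).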

[15] = 31 g ai/ha, 0 to 100 scale (0 no effect, 100 complete control)
[16] = 125 g ai/ha, scale 0 to 100 (0 no effect, 100 complete control)
[17] = 250 g ai/ha, scale 0 to 100 (0 no effect, 100 complete control), 13 to 15 days

## O=C1CCCC(O)=C1C(=O)c1cnc(-c2ccccc2)n(-c2ccccc2)c1=O [Compound 2, 5-[(2-hydroxy-6-oxo-1-cyclohexen-1-yl)carbonyl]-2,3-diphenyl-4(3H)-pyrimidinone]
[1]; 62 g ai/ha
  Plant response rating: Bromegrass, Downy: 0
[1]; 125 g ai/ha
  Plant response rating: Bromegrass, Downy: 0
[1]; 16 g ai/ha
  Plant response rating: Bromegrass, Downy: 0
[1]; 31 g ai/ha
  Plant response rating: Bromegrass, Downy: 0
[2]; 62 g ai/ha
  Plant response rating: Ryegrass, Italian: 0
[2]; 125 g ai/ha
  Plant response rating: Ryegrass, Italian: 0
[2]; 16 g ai/ha
  Plant response rating: Ryegrass, Italian: 0
[2]; 31 g ai/ha
  Plant response rating: Ryegrass, Italian: 0
[3]; 62 g ai/ha
  Plant response rating: Bluegrass: 0
[3]; 125 g ai/ha
  Plant response rating: Bluegrass: 0
[3]; 16 g ai/ha
  Plant response rating: Bluegrass: 0
[3]; 31 g ai/ha
  Plant response rating: Bluegrass: 0
[4]; 62 g ai/ha
  Plant response rating: Barley, Winter: 0
[4]; 125 g ai/ha
  Plant response rating: Barley, Winter: 0
[4]; 16 g ai/ha
  Plant response rating: Barley, Winter: 0
[4]; 31 g ai/ha
  Plant response rating: Barley, Winter: 0
[5]; 16 g ai/ha
  Plant response rating: Barley, Winter: 0
[5]; 31 g ai/ha
  Plant response rating: Barley, Winter: 0
[5]; 62 g ai/ha
  Plant response rating: Barley, Winter: 10
[5]; 125 g ai/ha
  Plant response rating: Barley, Winter: 30
[6]; 16 g ai/ha
  Plant response rating: Windgrass: 5
[6]; 31 g ai/ha
  Plant response rating: Windgrass: 20
[6]; 62 g ai/ha
  Plant response rating: Windgrass: 25
[6]; 125 g ai/ha
  Plant response rating: Windgrass: 40
[7]; 16 g ai/ha
  Plant response rating: Blackgrass: 0
[7]; 31 g ai/ha
  Plant response rating: Blackgrass: 0
[7]; 62 g ai/ha
  Plant response rating: Blackgrass: 20
[7]; 125 g ai/ha
  Plant response rating: Blackgrass: 30
[8]; 16 g ai/ha
  Plant response rating: Bromegrass, Downy: 10
[8]; 31 g ai/ha
  Plant response rating: Bromegrass, Downy: 20
[8]; 62 g ai/ha
  Plant response rating: Bromegrass, Downy: 30
[8]; 125 g ai/ha
  Plant response rating: Bromegrass, Downy: 50
[9]; 16 g ai/ha
  Plant response rating: Deadnettle: 95
[9]; 31 g ai/ha
  Plant response rating: Deadnettle: 95
[9]; 62 g ai/ha
  Plant response rating: Deadnettle: 100
[9]; 125 g ai/ha
  Plant response rating: Deadnettle: 100
[10]; 62 g ai/ha
  Plant response rating: Mustard, Wild: 5
[10]; 125 g ai/ha
  Plant response rating: Mustard, Wild: 35
[10]; 16 g ai/ha
  Plant response rating: Mustard, Wild: 0
[10]; 31 g ai/ha
  Plant response rating: Mustard, Wild: 0
[11]; 62 g ai/ha
  Plant response rating: Chickweed: 98
[11]; 125 g ai/ha
  Plant response rating: Chickweed: 98
[11]; 16 g ai/ha
  Plant response rating: Chickweed: 75
[11]; 31 g ai/ha
  Plant response rating: Chickweed: 98
[12]; 62 g ai/ha
  Plant response rating: Radish, Wild: 0
[12]; 125 g ai/ha
  Plant response rating: Radish, Wild: 0
[12]; 16 g ai/ha
  Plant response rating: Radish, Wild: 0
[12]; 31 g ai/ha
  Plant response rating: Radish, Wild: 0
[13]; 62 g ai/ha
  Plant response rating: Field Violet: 0
[13]; 125 g ai/ha
  Plant response rating: Field Violet: 0
[13]; 16 g ai/ha
  Plant response rating: Field Violet: 0
[13]; 31 g ai/ha
  Plant response rating: Field Violet: 0
Wild oat (Avena fatua); 62 g ai/ha
  Plant response rating: Oat, Wild: 0
Wild oat (Avena fatua); 125 g ai/ha
  Plant response rating: Oat, Wild: 0
Wild oat (Avena fatua); 16 g ai/ha
  Plant response rating: Oat, Wild: 0
Wild oat (Avena fatua); 31 g ai/ha
  Plant response rating: Oat, Wild: 0
Kochia (Kochia scoparia); 62 g ai/ha
  Plant response rating: Kochia: 30
Kochia (Kochia scoparia); 125 g ai/ha
  Plant response rating: Kochia: 90
Kochia (Kochia scoparia); 16 g ai/ha
  Plant response rating: Kochia: 5
Kochia (Kochia scoparia); 31 g ai/ha
  Plant response rating: Kochia: 5

## CCCCn1c(C2CC2)ncc(C(=O)C2=C(O)CCCC2=O)c1=O [Compound 193]
[14]; [15]
  Plant response rating, Deadnettle: 100
[14]; [16]
  Plant response rating, Deadnettle: 100
[14]; [17]
  Plant response rating, Deadnettle: 100
[14]; 62 g ai/ha, scale 0 to 100 (0 no effect, 100 complete control)
  Plant response rating, Deadnettle: 100

## O=C1CCCC(O)=C1C(=O)c1cnc(-c2ccsc2)n(C2CCOCC2)c1=O [Compound 186]
[14]; [15]
  Plant response rating, Deadnettle: 90
[14]; [16]
  Plant response rating, Deadnettle: 100
[14]; [17]
  Plant response rating, Deadnettle: 100
